From patent US20260297081A1, “COMPOUNDS AND METHODS OF TREATING CANCERS” (Cullgen Inc., priority 2023, published 2026) come the findings set out here.

A word on the IC50: it is the concentration needed to halve the response being measured. For orientation: inhibition means the share of the control response that was lost under treatment. A high value points to a response far below the control.

What all share (assay type): cell-based
One experiment has as its system Calu-1 cells. Kind of experiment: Anti-proliferation (viability) of NSCLC Calu-1 cells, 3 days (Table 7, FIG. 2B). As to conditions: Homo sapiens, 72 h; Calu-1 cells, 3 days, 10-point serial dilution; read-out: GI IC50 in Calu-1. As for the experimental part: To evaluate anti-proliferation activities of heterobifunctional compounds, NSCLC Calu-1 or ER+ breast cancer T47D cells were treated with selected heterobifunctional compounds following a 10-point serial dilution for 3 or 6 days, respectively.
To verify that heterobifunctional compound-mediated degradation is dependent on the binding to CDK4-cyclin D complex, a negative control compound, CPD-143, which is derived from active heterobifunctional compound CPD-10 was designed. CPD-143 bears the same DDB1 ligand and linker as CPD-10 but with a modified warhead to impair the binding of the control compound to CDK4.

Another experiment relates to MCF7 cells. Kind of experiment: Anti-proliferation (viability) of MCF7 cells (Table 7, FIG. 2B). As to conditions: Homo sapiens, MCF7, MCF7 cells, 3-6 days, 10-point serial dilution; read-out: GI IC50 in MCF-7.
Experiment [1] concerns the target T1, CDK4 (Homo sapiens, UniProt P11802+Q16531). Kind of experiment: CDK4 percentage degradation in Calu-1 cells (Table 6). The arrangement: Cells that express cyclin D1-3 and CDK4/6 proteins were treated with heterobifunctional compounds; endogenous in cells; host or cells: Calu-1. As to conditions: 16 hours; for inhibition at 0.04 µM: 40 nM; for inhibition at 0.2 µM: 200 nM. Summed up: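 Percentage degradation of Cyclin D1 and CDK4 derived from densitometry of ECL Western blots on lysates of Calu-1 cells. Treatment was 16 h with compound at either 40 nM or 200 nM.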
Target sequence in this assay (P11802 2-303 limits assumed): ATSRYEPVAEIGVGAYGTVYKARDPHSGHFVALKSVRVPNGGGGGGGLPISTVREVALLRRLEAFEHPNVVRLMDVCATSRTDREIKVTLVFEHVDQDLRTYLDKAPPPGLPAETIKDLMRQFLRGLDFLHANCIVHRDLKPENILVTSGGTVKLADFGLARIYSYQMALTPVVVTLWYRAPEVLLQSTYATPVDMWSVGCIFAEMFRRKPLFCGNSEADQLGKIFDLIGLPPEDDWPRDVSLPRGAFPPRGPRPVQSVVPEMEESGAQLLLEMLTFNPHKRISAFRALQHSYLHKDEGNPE
Target sequence in this assay (P24385 whole entry partner): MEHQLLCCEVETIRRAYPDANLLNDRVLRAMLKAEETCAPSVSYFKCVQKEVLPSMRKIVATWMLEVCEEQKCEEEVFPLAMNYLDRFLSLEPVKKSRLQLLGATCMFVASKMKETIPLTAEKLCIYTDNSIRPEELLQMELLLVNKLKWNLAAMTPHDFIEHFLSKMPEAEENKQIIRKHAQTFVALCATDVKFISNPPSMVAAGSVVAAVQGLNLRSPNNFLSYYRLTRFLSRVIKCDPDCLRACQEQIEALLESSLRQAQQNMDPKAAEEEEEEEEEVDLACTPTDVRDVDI
Target sequence in this assay (Q16531 2-1140 limits assumed): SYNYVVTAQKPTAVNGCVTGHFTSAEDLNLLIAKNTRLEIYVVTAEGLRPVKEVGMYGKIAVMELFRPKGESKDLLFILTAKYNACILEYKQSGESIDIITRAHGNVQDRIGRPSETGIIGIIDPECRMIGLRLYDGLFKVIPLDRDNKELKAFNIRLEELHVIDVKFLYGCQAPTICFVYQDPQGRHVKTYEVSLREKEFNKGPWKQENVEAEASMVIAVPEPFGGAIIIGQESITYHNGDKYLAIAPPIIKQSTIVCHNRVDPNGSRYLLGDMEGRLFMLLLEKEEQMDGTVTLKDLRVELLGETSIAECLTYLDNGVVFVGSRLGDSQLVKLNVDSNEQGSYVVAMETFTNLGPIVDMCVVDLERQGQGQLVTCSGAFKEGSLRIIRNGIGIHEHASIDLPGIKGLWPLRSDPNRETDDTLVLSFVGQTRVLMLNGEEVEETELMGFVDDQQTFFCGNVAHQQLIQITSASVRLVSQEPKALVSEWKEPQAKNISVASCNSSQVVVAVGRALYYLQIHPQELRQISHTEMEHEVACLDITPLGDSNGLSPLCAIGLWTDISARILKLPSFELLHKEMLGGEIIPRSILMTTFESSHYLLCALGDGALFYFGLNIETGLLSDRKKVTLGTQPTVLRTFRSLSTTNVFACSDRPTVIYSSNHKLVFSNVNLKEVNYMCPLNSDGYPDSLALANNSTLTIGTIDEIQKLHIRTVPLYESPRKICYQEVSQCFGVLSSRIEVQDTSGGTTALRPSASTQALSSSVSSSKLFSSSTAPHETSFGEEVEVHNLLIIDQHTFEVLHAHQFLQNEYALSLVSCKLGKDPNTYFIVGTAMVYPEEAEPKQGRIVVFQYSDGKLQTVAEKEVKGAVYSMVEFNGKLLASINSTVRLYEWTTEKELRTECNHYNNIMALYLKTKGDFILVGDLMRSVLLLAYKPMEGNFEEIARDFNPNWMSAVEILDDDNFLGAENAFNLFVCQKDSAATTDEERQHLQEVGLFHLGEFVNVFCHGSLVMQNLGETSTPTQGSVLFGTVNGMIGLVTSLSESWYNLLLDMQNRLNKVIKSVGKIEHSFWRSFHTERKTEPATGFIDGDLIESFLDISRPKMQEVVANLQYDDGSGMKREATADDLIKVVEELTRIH

For experiment [2], the target named is T1, CDK4. Description: HiBiT detection of HiBiT-tagged CDK4 protein level in MCF7 cells, 16 hours (Table 8). The arrangement: expressed in transfected cells; host or cells: MCF7. As to conditions: MCF7 cells stably expressing HiBiT tagged target proteins; for activity at 0.01 µM: 10 nM, read-out: % CDK4 Relative Level (10 nM); for activity at 0.1 µM: 100 nM, read-out: % CDK4 Relative Level (100 nM). As for the experimental part: HiBiT detection system quantitatively measures total amounts of HiBiT-tagged proteins using a luminescent based method. MCF7 cells stably expressing HiBiT tagged target proteins were treated with heterobifunctional compounds at indicated concentrations for 16 hours, then lysed with Nano-Glo HiBiT Lytic detection reagents.
Target sequence in this assay (P11802 whole entry): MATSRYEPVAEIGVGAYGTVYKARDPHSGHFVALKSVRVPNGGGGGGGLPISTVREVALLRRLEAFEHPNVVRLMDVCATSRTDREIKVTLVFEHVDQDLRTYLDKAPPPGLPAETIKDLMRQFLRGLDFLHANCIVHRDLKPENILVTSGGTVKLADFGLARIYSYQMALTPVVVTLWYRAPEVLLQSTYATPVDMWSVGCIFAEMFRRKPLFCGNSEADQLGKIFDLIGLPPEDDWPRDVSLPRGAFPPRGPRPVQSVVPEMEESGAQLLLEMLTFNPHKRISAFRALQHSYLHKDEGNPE
Target sequence in this assay (P24385 whole entry partner): as the sequence (P24385 whole entry partner) above
Target sequence in this assay (Q16531 2-1140 limits assumed): as the sequence (Q16531 2-1140 limits assumed) above
(In general: With HiBiT, luminescence reflects the tagged protein that the partner subunit can reach.)

SMILES strings stand for the structures. Bounds are passed on as bounds.

As to `CNc1ccc(C(=O)Nc2ccc(N(C)C)nn2)c(NC2CN(CC(=O)N3CCN(Cc4ccc(Nc5ncc6c(C)c(C(C)=O)c(=O)n(C7CCCC7)c6n5)nc4)CC3)C2)n1` [CPD-513, 2-((1-(2-(4-((6-((6-acetyl-8-cyclopentyl-5-methyl-7-oxo-7,8-dihydropyrido[2,3-d]pyrimidin-2-yl)amino)pyridin-3-yl)methyl)piperazin-1-yl)-2-oxoethyl)azetidin-3-yl)amino)-N-(6-(dimethylamino)pyridazin-3-yl)-6-(methylamino)nicotinamide], the IC50 in the experiment on Calu-1 cells is not below 0.05 µM.

For `CC(=O)c1c(C)c2cnc(Nc3ccc(CN4CC5(C4)CN(C(=O)CN4CCC(Nc6nc(NC(C)C)ccc6C(=O)Nc6ccc(N(C)C)nn6)CC4)C5)cn3)nc2n(C2CCCC2)c1=O` [CPD-498, 2-((1-(2-(6-((6-((6-acetyl-8-cyclopentyl-5-methyl-7-oxo-7,8-dihydropyrido[2,3-d]pyrimidin-2-yl)amino)pyridin-3-yl)methyl)-2,6-diazaspiro[3.3]heptan-2-yl)-2-oxoethyl)piperidin-4-yl)amino)-N-(6-(dimethylamino)pyridazin-3-yl)-6-(isopropylamino)nicotinamide], the IC50 in the experiment with Calu-1 cells was not below 0.05 µM. As to `CC(=O)c1c(C)c2cnc(Nc3ccc(CN4CCN(C5CCN(C(=O)C6CC(Nc7nc(NC(C)C)ccc7C(=O)Nc7ccc(N(C)C)nn7)C6)C5)CC4)cn3)nc2n(C2CCCC2)c1=O` (stereo not shown) [CPD-510, 2-((3-(3-(4-((6-((6-acetyl-8-cyclopentyl-5-methyl-7-oxo-7,8-dihydropyrido[2,3-d]pyrimidin-2-yl)amino)pyridin-3-yl)methyl)piperazin-1-yl)pyrrolidine-1-carbonyl)cyclobutyl)amino)-N-(6-(dimethylamino)pyridazin-3-yl)-6-(isopropylamino)nicotinamide], the IC50 with Calu-1 cells was not below 0.05 µM. Still for that read-out and setting: next, `CC(=O)c1c(C)c2cnc(Nc3ccc(CN4CC5(C4)CN(C(=O)CN4CC6(CC(Nc7nc(NC(C)C)ccc7C(=O)Nc7ccc(N(C)C)nn7)C6)C4)C5)cn3)nc2n(C2CCCC2)c1=O` [CPD-497, 2-((2-(2-(6-((6-((6-acetyl-8-cyclopentyl-5-methyl-7-oxo-7,8-dihydropyrido[2,3-d]pyrimidin-2-yl)amino)pyridin-3-yl)methyl)-2,6-diazaspiro[3.3]heptan-2-yl)-2-oxoethyl)-2-azaspiro[3.3]heptan-6-yl)amino)-N-(6-(dimethylamino)pyridazin-3-yl)-6-(isopropylamino) nicotinamide]: not below 0.05 µM; `[2H]C([2H])([2H])Nc1ccc(C(=O)Nc2ccc(N(C)C)nn2)c(NC2CC(NC(=O)N3CCC(N4CCN(c5ccc(Nc6ncc7c(C)c(C(C)=O)c(=O)n(C8CCCC8)c7n6)nc5)CC4)C3)C2)n1` (stereo not shown) [CPD-494, 2-((3-(3-(4-(6-((6-acetyl-8-cyclopentyl-5-methyl-7-oxo-7,8-dihydropyrido[2,3-d]pyrimidin-2-yl)amino)pyridin-3-yl)piperazin-1-yl)pyrrolidine-1-carboxamido)cyclobutyl)amino)-N-(6-(dimethylamino)pyridazin-3-yl)-6-((methyl-d3)amino)nicotinamide]: not below 0.05 µM; `[2H]C([2H])([2H])Nc1ccc(C(=O)Nc2ccc(N(C)C)nn2)c(N[C@H]2CC[C@H](C(=O)N3CCN(Cc4ccc(Nc5ncc6c(C)c(C(C)=O)c(=O)n(C7CCCC7)c6n5)nc4)CC3)CC2)n1` [CPD-495, 2-((4-(4-((6-((6-acetyl-8-cyclopentyl-5-methyl-7-oxo-7,8-dihydropyrido[2,3-d]pyrimidin-2-yl)amino)pyridin-3-yl)methyl)piperazine-1-carbonyl)cyclohexyl)amino)-N-(6-(dimethylamino)pyridazin-3-yl)-6-((methyl-d3)amino)nicotinamide]: not below 0.05 µM. Same read-out and setting: next, `COc1cccc(NC(=O)c2ccc(NC(C)C)nc2N[C@H]2CC[C@H](C(=O)N3CCC(N4CCN(c5ccc(Nc6ncc7c(C)c(C(C)=O)c(=O)n(C8CCCC8)c7n6)nc5)CC4)C3)CC2)n1` (stereo partly drawn) [CPD-522, 2-((trans-4-(3-(4-(6-((6-acetyl-8-cyclopentyl-5-methyl-7-oxo-7,8-dihydropyrido[2,3-d]pyrimidin-2-yl)amino)pyridin-3-yl)piperazin-1-yl)pyrrolidine-1-carbonyl)cyclohexyl)amino)-6-(isopropylamino)-N-(6-methoxypyridin-2-yl)nicotinamide]: not above 0.01 µM; `CC(=O)c1c(C)c2cnc(Nc3ccc(CN4CCN(CC(=O)NCC5CC(Nc6nc(NC(C)C)ccc6C(=O)Nc6ccc(N(C)C)nn6)C5)CC4)cn3)nc2n(C2CCCC2)c1=O` (stereo not shown) [CPD-493, 2-((3-((2-(4-((6-((6-acetyl-8-cyclopentyl-5-methyl-7-oxo-7,8-dihydropyrido[2,3-d]pyrimidin-2-yl)amino)pyridin-3-yl)methyl)piperazin-1-yl)acetamido)methyl)cyclobutyl)amino)-N-(6-(dimethylamino)pyridazin-3-yl)-6-(isopropylamino)nicotinamide]: not above 0.01 µM; `[2H]C([2H])([2H])Nc1ccc(C(=O)Nc2ccc(N(C)C)nn2)c(NC2CC3(C2)CN(C(=O)CN2CCC4(CCN(Cc5ccc(Nc6ncc7c(C)c(C(C)=O)c(=O)n(C8CCCC8)c7n6)nc5)C4)C2)C3)n1` (stereo not shown) [CPD-519, 2-((2-(2-(7-((6-((6-acetyl-8-cyclopentyl-5-methyl-7-oxo-7,8-dihydropyrido[2,3-d]pyrimidin-2-yl)amino)pyridin-3-yl)methyl)-2,7-diazaspiro[4.4]nonan-2-yl)acetyl)-2-azaspiro[3.3]heptan-6-yl)amino)-N-(6-(dimethylamino)pyridazin-3-yl)-6-((methyl-d3)amino)nicotinamide]: not above 0.01 µM. Turning to `COc1ccc(NC(=O)c2ccc(NC(C)C)nc2N[C@H]2CC[C@H](C(=O)N3CCC(N4CCN(c5ccc(Nc6ncc7c(C)c(C(C)=O)c(=O)n(C8CCCC8)c7n6)nc5)CC4)C3)CC2)nn1` (stereo partly drawn) [CPD-500, 2-((trans-4-(3-(4-(6-((6-acetyl-8-cyclopentyl-5-methyl-7-oxo-7,8-dihydropyrido[2,3-d]pyrimidin-2-yl)amino)pyridin-3-yl)piperazin-1-yl)pyrrolidine-1-carbonyl)cyclohexyl)amino)-6-(isopropylamino)-N-(6-methoxypyridazin-3-yl)nicotinamide], the IC50 in the experiment on Calu-1 cells is not above 0.01 µM. For the compound `CC(=O)c1c(C)c2cnc(Nc3ccc(N4CCN(CCC(=O)N5CC6(CC(Nc7nc(NC(C)C)ccc7C(=O)Nc7ccc(N(C)C)nn7)C6)C5)CC4)cn3)nc2n(C2CCCC2)c1=O` [CPD-305, 2-((2-(3-(4-(6-((6-acetyl-8-cyclopentyl-5-methyl-7-oxo-7,8-dihydropyrido[2,3-d]pyrimidin-2-yl)amino)pyridin-3-yl)piperazin-1-yl)propanoyl)-2-azaspiro[3.3]heptan-6-yl)amino)-N-(6-(dimethylamino)pyridazin-3-yl)-6-(isopropylamino)nicotinamide], in the experiment with MCF7 cells, the IC50 was less than 0.05 µM. Moreover, at CDK4 [1], the inhibition at 0.04 µM was in the range of 30 to 50% and the inhibition at 0.2 µM lay within 30 to 50%. Further, on CDK4 [2], the activity at 0.01 µM lay within 55 to 85% and the activity at 0.1 µM lay in the range of 55 to 85%.

With `CC(=O)c1c(C)c2cnc(Nc3ccc(N4CCN(C(C)CC(=O)N5CC6(CC(Nc7nc(NC(C)C)ccc7C(=O)Nc7cn(C)c(C8CC8)n7)C6)C5)CC4)cn3)nc2n(C2CCCC2)c1=O` (stereo not shown) [CPD-338, 2-((2-(3-(4-(6-((6-acetyl-8-cyclopentyl-5-methyl-7-oxo-7,8-dihydropyrido[2,3-d]pyrimidin-2-yl)amino)pyridin-3-yl)piperazin-1-yl)butanoyl)-2-azaspiro[3.3]heptan-6-yl)amino)-N-(2-cyclopropyl-1-methyl-1H-imidazol-4-yl)-6-(isopropylamino)nicotinamide], the IC50 in the experiment with MCF7 cells was less than 0.05 µM. At CDK4 [1], this compound came in with an inhibition at 0.04 µM of 30 to 50% and an inhibition at 0.2 µM of 30 to 50%. Also, at CDK4 [2], the activity at 0.01 µM lay within 55 to 85% and the activity at 0.1 µM fell in the range of 55 to 85%. Consider `CC(=O)c1c(C)c2cnc(Nc3ccc(N4CCN(CC5(C(=O)N6CC7(CC(Nc8nc(NC(C)C)ccc8C(=O)Nc8ccc(N(C)C)nn8)C7)C6)CC5)CC4)cn3)nc2n(C2CCCC2)c1=O` [CPD-306, 2-((2-(1-((4-(6-((6-acetyl-8-cyclopentyl-5-methyl-7-oxo-7,8-dihydropyrido[2,3-d]pyrimidin-2-yl)amino)pyridin-3-yl)piperazin-1-yl)methyl)cyclopropane-1-carbonyl)-2-azaspiro[3.3]heptan-6-yl)amino)-N-(6-(dimethylamino)pyridazin-3-yl)-6-(isopropylamino)nicotinamide], for which, in the experiment with MCF7 cells, the IC50 is less than 0.05 µM. At CDK4 [1], the inhibition at 0.04 µM lay within 30 to 50% and the inhibition at 0.2 µM fell in the range of 30 to 50%. For the same compound, on CDK4 [2], the activity at 0.01 µM lay in the range of 55 to 85% and the activity at 0.1 µM fell in the range of 55 to 85%.
